From patent US20230278958A1 (Merck Patent GmbH, priority 2020, published 2023)

Legend:
[1] = tested on: YAP-TEAD interaction; assay: SK-HEP-1 reporter assay (8x TEAD responsive elements driving NanoLuc luciferase); type: cell-based; details: Homo sapiens, SK-HEP1; SK-HEP-1 TEAD-NanoLuc reporter cells, 24 hour incubation, luciferase readout
Method: To identify inhibitors of YAP-TEAD interaction, 8× TEAD responsive elements driving the NanoLuc® luciferase gene were stably integrated into SK-HEP-1 cells (ECACC #: 91091816).
For the assay, cells were treated in duplicates with the test compounds in a 10-point dose, with the top concentration starting at 30 μM (final concentration in assay). After a 24 hour incubation at 37° C., 95% rH, and 5% CO2, a luciferase substrate/lysis reagent mix (NanoGlo™, Promega) was added to the cells, allowing the quantification of cellular luciferase activity.
Cell Media: The cells were cultured in the following media: MEM, +10% FBS, +1× GlutaMAX, +1 mM Sodium-Pyruvate, +100 μM Non-essential amino acids, +0.1 mg/ml Hygromycin. The media used for the assay was: MEM (w/o Phenol Red), +10% FBS, +1× GlutaMAX, +1 mM Sodium-Pyruvate, +100 μM Non-essential amino acids, +0.5% Pen/Strep
(§1) Reagents: The reagents used are listed below:
(§2) Cell culture: The cells were examined using an inverted microscope to check for health and cell density. To dissociate adherent cells, the monolayer of cells was washed once with pre-warmed PBS. After removing the PBS, 3 ml pre-warmed Accutase® was added to a F75 flask, dispersed evenly and the flask was allowed to sit in incubator for ˜4-5 minutes.
(§3) When a single cell suspension was obtained, 7 ml of prewarmed growth media was added and resuspended with the cells. The cell suspension was transferred to a sterile 15 ml conical centrifuge tube, and spun for 5 min at 300×g, RT. The supernatant was discarded and the pellet was resuspended in 10 ml of pre-warmed growth media.
(§4) The total cell count was determined, and 20 μl of the desired cell number was added to each well of a 384 well plate using a Multidrop Combi. The plates were then incubated for 24 hours at 37° C., 95% rH, and 5% CO2.
(§5) Compound treatment: 24 hours after seeding, the cells were treated with compounds.
(§6) A 1:333 dilution of compounds, diluted in DMSO, was made to get a final concentration of 0.3% DMSO per well. To transfer the compounds to the assay plate, 120 nl was shot from Labcyte low dead volume plates to the cell plates containing 20 μl media/well with the ECHO 555 liquid handling system.
(§7) After treatment, the cells were fed with 20 μl fresh pre-warmed assay media using a Multidrop combi.
The assay plates were then incubated for another 24 h at 37° C., 95% rH, and 5% CO2.
Luciferase readout: 24 h after treatment, the plates were taken out of the incubator and were allowed to equilibrate to RT. 30 μl of NanoGlo® reagent was added to the plates in the dark. Plates were shaken for 20 min on a Teleshake (˜1500 rpm) in the dark. The luminescence was then measured using an EnVision microplate reader. The IC50 values were generated using Genedata Screener®.
Experimental data in SK-HEP-1 reporter assay of the compounds shown in Table 1 are shown in Table 2 below and classified in the following groups: […]

[2] = tested on: NCI-H226 cells; assay: Viability assay in NCI-H226 (Yap-dependent) cells, CyQUANT; type: cell-based; details: Homo sapiens, 96 hour incubation
Method: The ability of YAP-TEAD inhibitors to inhibit tumor cell growth was evaluated using two different cell lines: NCI-H226, which is a YAP dependent cell line, and SW620 cells, where YAP and TAZ were knocked out using CRISPR to generate a YAP independent cell line.
For the assay, cells were treated in duplicates with the test compounds in a 10-point dose, 1:3 dilution steps, with the top concentration starting at 30 μM (final concentration in assay). After a 96 hour incubation at 37° C., 95% rH, and 5% CO2, a cell-permeant DNA-binding dye that stains only healthy cells (CyQUANT®, Promega) was added to the cells, allowing the quantification of cell viability.
Cell Media: The NCI-H226 cells were cultured in the following media: RPMI 1640, +10% FBS, +1× GlutaMAX, +10 mM HEPES, +0.5% Pen/Strep. The SW620-KO cells were cultured in the following media: DMEM/F-12, +10% FBS, +1× GlutaMAX, +10 mM HEPES, +0.5% Pen/Strep.
as §1
as §2, with “health,” for “health and”, “density, etc.” for “density.”, “Accutase” for “Accutase®”
as §3, §4, §5, §6, §7
The assay plates were then incubated for 96 h at 37° C., 95% rH, and 5% CO2.
96h after treatment 30 μl of CyQuant® reagent was added to the assay plates using a Multidrop combi in the dark. The plates were then incubated for 1 hour at 37° C., 95% rH and 5% CO2. Thereafter, the assay plates were removed from the incubator and allowed to equilibrate to RT for 30 min in the dark without lid. Finally, they were measured using an EnVision microplate reader with a FITC bottom read program.
Experimental data in the Viability assay of the compounds shown in Table 1 are shown in Table 3 below and classified in the following groups: […]

Structure (SMILES) | IC50 [1] [nM] | IC50 [2] [µM]
Cc1ccc2c(c1)c1cc(C(=O)NC[C@H](O)CO)ccc1n2-c1ccc(C(F)(F)F)cc1 (single isomer, unassigned) [Compound 69, N-[(2S or 2R)-2,3-dihydroxypropyl]-6-methyl-9-[4-(trifluoromethyl)phenyl]-9H-carbazole-3-carboxamide] | 100 to 1000 | –
O=C(O)c1ccc2c(c1)c1cc(Cc3cccc(F)c3)ccc1n2-c1ccc(C(F)(F)F)cc1 [Compound 2, 6-[(3-fluorophenyl)methyl]-9-[4-(trifluoromethyl)phenyl]-9H-carbazole-3-carboxylic acid] | 100 to 1000 | 0.1 to 1
O=C(O)c1ccc2c(c1)c1cc(Cc3ccccc3F)ccc1n2-c1ccc(C(F)(F)F)cc1 [Compound 3, 6-[(2-fluorophenyl)methyl]-9-[4-(trifluoromethyl)phenyl]-9H-carbazole-3-carboxylic acid] | 100 to 1000 | 1 to 10
O=C(O)c1ccc2c(c1)c1cc(OC(F)(F)F)ccc1n2-c1ccc(C(F)(F)F)cc1 [Compound 15, 6-(trifluoromethoxy)-9-[4-(trifluoromethyl)phenyl]-9H-carbazole-3-carboxylic acid] | 10 to 100 | 0.001 to 0.1
O=C(O)c1cc2c3ccccc3n(Cc3ccc(C(F)(F)F)cc3)c2cn1 [Compound 32, 9-{[4-(trifluoromethyl)phenyl]methyl}-9H-pyrido[3,4-b]indole-3-carboxylic acid] | > 1000 | –
Cc1ccc2c(c1)c1cc(C(=O)NC3CC3)ccc1n2-c1ccc(C(F)(F)F)cc1 [Compound 37, N-cyclopropyl-6-methyl-9-[4-(trifluoromethyl)phenyl]-9H-carbazole-3-carboxamide] | 10 to 100 | 0.001 to 0.1
Cc1ccc2c(c1)c1cc(C(=O)NCCO)ccc1n2-c1ccc(C(F)(F)F)cc1 [Compound 38, N-(2-hydroxyethyl)-6-methyl-9-[4-(trifluoromethyl)phenyl]-9H-carbazole-3-carboxamide] | 10 to 100 | 0.001 to 0.1
Cc1ccc2c(c1)c1cc(C(=O)NCc3ccccn3)ccc1n2-c1ccc(OC(F)(F)F)cc1 [Compound 64, 6-methyl-N-[(pyridin-2-yl)methyl]-9-[4-(trifluoromethoxy)phenyl]-9H-carbazole-3-carboxamide] | > 1000 | –
Cc1ccc2c(c1)c1cc(C(=O)NCc3ncccn3)ccc1n2-c1ccc(OC(F)(F)F)cc1 [Compound 65, 6-methyl-N-[(pyrimidin-2-yl)methyl]-9-[4-(trifluoromethoxy)phenyl]-9H-carbazole-3-carboxamide] | > 1000 | –
Cc1ccc2c(c1)c1cc(C(=O)N[C@@H](C)CO)ccc1n2-c1ccc(C(F)(F)F)cc1 [Compound 72, N-[(2S)-1-hydroxypropan-2-yl]-6-methyl-9-[4-(trifluoromethyl)phenyl]-9H-carbazole-3-carboxamide] | 100 to 1000 | –
Cc1ccc2c(c1)c1cc(C(=O)NCc3ccncn3)ccc1n2-c1ccc(OC(F)(F)F)cc1 [Compound 73, 6-methyl-N-[(pyrimidin-4-yl)methyl]-9-[4-(trifluoromethoxy)phenyl]-9H-carbazole-3-carboxamide] | > 1000 | –
Cc1cc2c3cc(C(=O)NCCO)ccc3n(-c3ccc(C(F)(F)F)cc3)c2cc1C [Compound 75, N-(2-hydroxyethyl)-6,7-dimethyl-9-[4-(trifluoromethyl)phenyl]-9H-carbazole-3-carboxamide] | 10 to 100 | –
Cc1cc2c3cc(C(N)=O)ccc3n(-c3ccc(C(F)(F)F)cc3)c2cc1C [Compound 76, 6,7-dimethyl-9-[4-(trifluoromethyl)phenyl]-9H-carbazole-3-carboxamide] | 10 to 100 | –

The remaining lines, values ahead:

IC50 [1] [nM] | IC50 [2] [µM] | Structure (SMILES)
10 to 100 | – | Cc1ccc2c(c1)c1cc(C(=O)NC[C@@H](O)CO)ccc1n2-c1ccc(C(F)(F)F)cc1 (single isomer, unassigned) [Compound 68, N-[(2R or 2S)-2,3-dihydroxypropyl]-6-methyl-9-[4-(trifluoromethyl)phenyl]-9H-carbazole-3-carboxamide]
100 to 1000 | > 10 | O=C(O)c1ccc2c(c1)c1cc(Cc3ccc(F)cc3)ccc1n2-c1ccc(C(F)(F)F)cc1 [Compound 4, 6-[(4-fluorophenyl)methyl]-9-[4-(trifluoromethyl)phenyl]-9H-carbazole-3-carboxylic acid]
100 to 1000 | 0.1 to 1 | O=C(O)c1ccc2c(c1)c1ccncc1n2-c1ccc(C(F)(F)F)cc1 [Compound 5, 9-[4-(trifluoromethyl)phenyl]-9H-pyrido[3,4-b]indole-6-carboxylic acid]
> 1000 | > 10 | O=C(O)c1ccc2c(c1)c1cnccc1n2-c1ccc(C(F)(F)F)cc1 [Compound 7, 5-[4-(trifluoromethyl)phenyl]-5H-pyrido[4,3-b]indole-8-carboxylic acid]
10 to 100 | 1 to 10 | N#Cc1ccc2c(c1)c1cc(C(=O)O)ccc1n2-c1ccc(C(F)(F)F)cc1 [Compound 12, 6-cyano-9-[4-(trifluoromethyl)phenyl]-9H-carbazole-3-carboxylic acid]
100 to 1000 | 0.1 to 1 | O=C(NC1CC1)c1cc2c3cccnc3n(-c3ccc(C(F)(F)F)cc3)c2cn1 [Compound 36, N-cyclopropyl-8-[4-(trifluoromethyl)phenyl]-5,8,10-triazatricyclo[7.4.0.0^2,^7]trideca-1(9),2(7),3,5,10,12-hexaene-4-carboxamide]
100 to 1000 | – | Cc1ccc2c(c1)c1cc(C(=O)NCC(O)C(F)(F)F)ccc1n2-c1ccc(C(F)(F)F)cc1 (centres unmarked) [Compound 60, 6-methyl-N-(3,3,3-trifluoro-2-hydroxypropyl)-9-[4-(trifluoromethyl)phenyl]-9H-carbazole-3-carboxamide]
> 1000 | – | Cc1ccc2c(c1)c1cc(C(=O)NCc3cnccn3)ccc1n2-c1ccc(OC(F)(F)F)cc1 [Compound 66, 6-methyl-N-[(pyrazin-2-yl)methyl]-9-[4-(trifluoromethoxy)phenyl]-9H-carbazole-3-carboxamide]
10 to 100 | – | Cc1ccc2c(n1)c1cc(C(N)=O)ccc1n2-c1ccc(C(F)(F)F)cc1 [Compound 67, 2-methyl-5-[4-(trifluoromethyl)phenyl]-5H-pyrido[3,2-b]indole-8-carboxamide]
10 to 100 | – | Cc1cc2c3cc(C(=O)NC4CC4)ccc3n(-c3ccc(C(F)(F)F)cc3)c2cc1C [Compound 70, N-cyclopropyl-6,7-dimethyl-9-[4-(trifluoromethyl)phenyl]-9H-carbazole-3-carboxamide]
100 to 1000 | – | Cc1ccc2c(c1)c1cc(C(=O)N[C@H](C)CO)ccc1n2-c1ccc(C(F)(F)F)cc1 [Compound 71, N-[(2R)-1-hydroxypropan-2-yl]-6-methyl-9-[4-(trifluoromethyl)phenyl]-9H-carbazole-3-carboxamide]
1 to 10 | – | CNC(=O)c1ccc2c(c1)c1cc(C)c(C)cc1n2-c1ccc(C(F)(F)F)cc1 [Compound 74, N,6,7-trimethyl-9-[4-(trifluoromethyl)phenyl]-9H-carbazole-3-carboxamide]
